Assay results published in PubChem BioAssay (NCI).
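Results reflect a 48-hour exposure of cells in 96-well plates to compound at five concentrations. TGI: concentration producing complete growth inhibition.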

Columns and labels:
Test in all cases: NCI tumour cell line growth inhibition, 48 h
[1] = tested on: SK-MEL-5 melanoma
[2] = tested on: A498 renal
[3] = tested on: LOX IMVI melanoma
[4] = tested on: SR leukemia
[5] = tested on: SW-620 colon
[6] = tested on: MDA-MB-435
[7] = tested on: DU-145 prostate
[8] = tested on: CAKI-1 renal
[9] = tested on: HCC-2998 colon
[10] = tested on: UACC-62 melanoma
[11] = tested on: RPMI-8226 leukemia
[12] = tested on: MALME-3M melanoma
[13] = tested on: RXF-631 renal
[14] = tested on: NCI/ADR-RES ovarian
[15] = tested on: K-562 leukemia
[16] = tested on: IGROV1 ovarian
[17] = tested on: ACHN renal
[18] = tested on: PC-3 prostate
[19] = tested on: UO-31 renal
[20] = tested on: M14 melanoma
[21] = tested on: DLD-1 colon
[22] = tested on: HCT-116 colon
[23] = tested on: SK-MEL-2 melanoma
[24] = tested on: NCI-H522 lung
[25] = tested on: TK-10 renal
[26] = tested on: SK-MEL-28 melanoma
[27] = tested on: HOP-18 NSCLC
[28] = tested on: DMS 114 small cell lung
[29] = tested on: A549 NSCLC
[30] = tested on: NCI-H460 lung
[31] = tested on: MDA-MB-231 breast
[32] = tested on: HS 578T breast
[33] = tested on: HOP-62 NSCLC
[34] = tested on: SNB-78 CNS
[35] = tested on: U251 CNS
[36] = tested on: SN12C renal
[37] = tested on: HT29 colon
[38] = tested on: OVCAR-3 ovarian
[39] = tested on: OVCAR-5 ovarian
[40] = tested on: RXF 393 renal
[41] = tested on: MDA-N
[42] = tested on: OVCAR-4 ovarian
[43] = tested on: M19-MEL melanoma
[44] = tested on: UACC-257 melanoma
[45] = tested on: HOP-92 NSCLC
[46] = tested on: EKVX NSCLC
[47] = tested on: SF-295 CNS
[48] = tested on: LXFL 529 NSCLC
[49] = tested on: SF-268 CNS
[50] = tested on: SNB-75 CNS
[51] = tested on: 786-0 renal
[52] = tested on: OVCAR-8 ovarian
[53] = tested on: SF-539 CNS
[54] = tested on: KM12 colon
[55] = tested on: BT-549 breast
[56] = tested on: NCI-H23 lung
[57] = tested on: SK-OV-3 ovarian
[58] = tested on: HL-60(TB) leukemia
[59] = tested on: MOLT-4 leukemia
[60] = tested on: CCRF-CEM leukemia
[61] = tested on: DMS 273 small cell lung
[62] = tested on: SNB-19 CNS
[63] = tested on: MCF7 breast
[64] = tested on: NCI-H226 lung
[65] = tested on: XF 498 CNS
[66] = tested on: COLO 205 colon
[67] = tested on: HCT-15 colon

Q: For `Nc1ccc(C(=O)Nc2ccccc2N)cc1`, which TGI [1] is on record?
A: 43.4 µM

Q: And the TGI [2]?
A: > 100 µM

Q: And the TGI [3]?
A: > 75.8 µM

Q: And the TGI [4]?
A: > 100 µM

Q: And the TGI [5]?
A: > 100 µM

Q: What about the TGI [6] of the same molecule?
A: > 100 µM

Q: And the TGI [7]?
A: > 100 µM

Q: And the TGI [8]?
A: > 100 µM

Q: And the TGI [9]?
A: > 100 µM

Q: What about the TGI [10] of the same molecule?
A: 39.7 µM

Q: And the TGI [11]?
A: 98.8 µM

Q: What about the TGI [12] of the same molecule?
A: 30.3 µM

Q: What about the TGI [13] of the same molecule?
A: > 100 µM

Q: What about the TGI [14] of the same molecule?
A: 19.6 µM

Q: What about the TGI [15] of the same molecule?
A: > 100 µM

Q: And the TGI [16]?
A: > 100 µM

Q: And the TGI [17]?
A: > 100 µM

Q: What about the TGI [18] of the same molecule?
A: > 100 µM

Q: And the TGI [19]?
A: > 100 µM

Q: What about the TGI [20] of the same molecule?
A: > 100 µM

Q: What about the TGI [21] of the same molecule?
A: > 100 µM

Q: And the TGI [22]?
A: > 90.7 µM

Q: What about the TGI [23] of the same molecule?
A: > 86.1 µM

Q: And the TGI [24]?
A: 47.2 µM

Q: And the TGI [25]?
A: > 63.1 µM

Q: And the TGI [26]?
A: > 100 µM

Q: What about the TGI [27] of the same molecule?
A: > 100 µM

Q: What about the TGI [28] of the same molecule?
A: > 100 µM

Q: What about the TGI [29] of the same molecule?
A: > 100 µM

Q: And the TGI [30]?
A: > 100 µM

Q: What about the TGI [31] of the same molecule?
A: > 100 µM

Q: What about the TGI [32] of the same molecule?
A: > 100 µM

Q: What about the TGI [33] of the same molecule?
A: > 100 µM

Q: And the TGI [34]?
A: > 100 µM

Q: What about the TGI [35] of the same molecule?
A: 59.8 µM

Q: What about the TGI [36] of the same molecule?
A: > 100 µM

Q: What about the TGI [37] of the same molecule?
A: > 100 µM

Q: And the TGI [38]?
A: > 100 µM

Q: What about the TGI [39] of the same molecule?
A: > 82.7 µM

Q: What about the TGI [40] of the same molecule?
A: > 100 µM

Q: What about the TGI [41] of the same molecule?
A: > 100 µM

Q: And the TGI [42]?
A: > 76.5 µM

Q: And the TGI [43]?
A: > 100 µM

Q: And the TGI [44]?
A: > 72.5 µM

Q: What about the TGI [45] of the same molecule?
A: > 100 µM

Q: What about the TGI [46] of the same molecule?
A: > 100 µM

Q: What about the TGI [47] of the same molecule?
A: > 100 µM

Q: And the TGI [48]?
A: > 100 µM

Q: What about the TGI [49] of the same molecule?
A: > 100 µM

Q: What about the TGI [50] of the same molecule?
A: > 93.1 µM

Q: And the TGI [51]?
A: > 100 µM

Q: What about the TGI [52] of the same molecule?
A: > 100 µM

Q: What about the TGI [53] of the same molecule?
A: > 100 µM

Q: What about the TGI [54] of the same molecule?
A: > 100 µM

Q: What about the TGI [55] of the same molecule?
A: > 100 µM

Q: And the TGI [56]?
A: > 100 µM

Q: What about the TGI [57] of the same molecule?
A: > 100 µM

Q: What about the TGI [58] of the same molecule?
A: 17.6 µM

Q: And the TGI [59]?
A: 73.7 µM

Q: And the TGI [60]?
A: > 82 µM

Q: What about the TGI [61] of the same molecule?
A: > 100 µM

Q: And the TGI [62]?
A: > 100 µM

Q: What about the TGI [63] of the same molecule?
A: > 100 µM

Q: What about the TGI [64] of the same molecule?
A: > 100 µM

Q: And the TGI [65]?
A: > 100 µM

Q: And the TGI [66]?
A: 45.2 µM

Q: What about the TGI [67] of the same molecule?
A: > 100 µM
